Assay results published in ChEMBL document CHEMBL3797116, “Modification on the O-glucoside of Sergliflozin-A: A new strategy for SGLT2 inhibitor design” (Bioorg Med Chem Lett, 2016).

Tests used:
Rattus norvegicus [1] = test: In vivo hypoglycemic activity in Sprague-Dawley rat assessed as urinary […] glucose level per 200g of animal body weight measured for 0 to 4 hrs at 5 mL/kg, po (reference value: 0.26 +/- 0.04 mg); assay type: functional, Urine
Rattus norvegicus [2] = test: In vivo hypoglycemic activity in Sprague-Dawley rat assessed as urinary […] glucose level per 200g of animal body weight measured for 8 to 12 hrs at 5 mL/kg, po (reference value: 0.21 +/- 0.01 mg); assay type: functional, Urine
Rattus norvegicus [3] = test: In vivo hypoglycemic activity in Sprague-Dawley rat assessed as urinary […] glucose level per 200g of animal body weight measured for 4 to 8 hrs at 5 mL/kg, po (reference value: 0.14 +/- 0.03 mg); assay type: functional, Urine
Rattus norvegicus [4] = test: In vivo hypoglycemic activity in Sprague-Dawley rat assessed as urinary […] glucose level per 200g of animal body weight measured for 0 to 24 hrs at 5 mL/kg, po (reference value: 2.03 +/- 0.34 mg); assay type: functional, Urine
Rattus norvegicus [5] = test: In vivo hypoglycemic activity in Sprague-Dawley rat assessed as urinary […] glucose level per 200g of animal body weight measured for 12 to 24 hrs at 5 mL/kg, po (reference value: 1.45 +/- 0.28 mg); assay type: functional, Urine
Liver = test: (§1) Metabolic stability in rat liver homogenate assessed as compound hydrolysis at 10 uM after 8 hrs; assay type: ADME, tissue-based; settings: tissue homogenate, 8 h, 10 µM
[6] = Octanol-phosphate buffer saline partition coefficient, logP of the compound measured after 24 hrs by HPLC method; assay type: physicochemical
Rattus norvegicus [7] = test: In vivo hypoglycemic activity in Sprague-Dawley rat assessed as reduction in urinary […] glucose level per 200g of animal body weight measured for 0 to 24 hrs at 5 mL/kg, po; assay type: functional, Urine; parameters: scale not given: the % may be the effect or the level left
Rattus norvegicus [8] = test: In vivo hypoglycemic activity in Sprague-Dawley rat assessed as urinary […] glucose level per 200g of animal body weight measured for 0 to 6 hrs at 5 mL/kg, po; assay type: functional, Urine
Rattus norvegicus [9] = test: In vivo hypoglycemic activity in Sprague-Dawley rat assessed as urinary […] glucose level per 200g of animal body weight measured for 6 to 24 hrs at 5 mL/kg, po; assay type: functional, Urine
[10] = as §1; assay type: ADME, tissue-based; settings: liver homogenate, read-out: Drug degradation

| Stability (Liver) | logP at 24 h [6] | metabolised at 8 h, 10 µM [10] [%] | SMILES | Activity (Rattus norvegicus [1]) [mg] | Activity (Rattus norvegicus [2]) [mg] | Activity (Rattus norvegicus [3]) [mg] | Activity (Rattus norvegicus [4]) [mg] | Activity (Rattus norvegicus [5]) [mg] | Activity (Rattus norvegicus [7]) [%] | Activity (Rattus norvegicus [8]) [mg] | Activity (Rattus norvegicus [9]) [mg] |
| --- | --- | --- | --- | --- | --- | --- | --- | --- | --- | --- | --- |
|  |  |  | COc1ccc(Cc2ccccc2O[C@@H]2O[C@H](CO)C[C@H](O)[C@H]2O)cc1 | 8.21 | 0.42 | 0.68 | 11.05 | 1.73 |  |  |  |
|  |  |  | COc1ccc(Cc2ccccc2O[C@@H]2O[C@H](CO)[C@@H](O)[C@H](OC)[C@H]2O)cc1 | 13.67 | 0.65 | 4.11 | 18.67 | 0.24 |  |  |  |
| Stable |  |  | CO[C@H]1[C@H](O)[C@@H](O)[C@H](Oc2ccc3oc(=O)cc(C)c3c2)O[C@@H]1CO |  |  |  |  |  |  |  |  |
|  |  |  | COc1ccc(Cc2ccccc2O[C@@H]2O[C@H](CO)[C@@H](O)C[C@H]2O)cc1 | 0.36 | 0.21 | 0.23 | 1.24 | 0.44 |  |  |  |
|  | 1.32 |  | COc1ccc(Cc2ccccc2O[C@@H]2O[C@H](CO)[C@@H](O)[C@H](O)[C@H]2O)cc1 [SERGLIFLOZIN A] | 126.99 | 33.8 | 34.8 | 235.03 | 39.44 |  |  |  |
|  |  |  | COC[C@H]1O[C@@H](Oc2ccccc2Cc2ccc(OC)cc2)[C@H](O)[C@@H](O)[C@@H]1O | 61.23 | 7.19 | 4.11 | 73.29 | 0.76 | 31 |  |  |
|  |  |  | COc1ccc(Cc2ccccc2O[C@@H]2O[C@H](CO)[C@@H](O)[C@H](O)[C@H]2F)cc1 |  |  |  | 16 |  |  | 4.9 | 11 |
|  |  | > 80 | Cc1cc(=O)oc2cc(O[C@@H]3O[C@H](CO)[C@@H](O)[C@H](O)[C@H]3O)ccc12 |  |  |  |  |  |  |  |  |
|  |  |  | COc1ccc(Cc2ccccc2O[C@@H]2O[C@H](CO)[C@@H](O)[C@H](O)[C@H]2OC)cc1 | 0.11 | 0.02 | 0.03 | 0.27 | 0.11 |  |  |  |
|  |  |  | COc1ccc(Cc2ccccc2O[C@@H]2O[C@H](CF)[C@@H](O)[C@H](O)[C@H]2O)cc1 | 2.34 | 0.13 | 1.03 | 4.52 | 1.02 |  |  |  |
|  |  |  | COc1ccc(Cc2ccccc2O[C@@H]2O[C@H](C)[C@@H](O)[C@H](O)[C@H]2O)cc1 | 33.36 | 0.07 | 0.69 | 34.91 | 0.8 |  |  |  |
|  | 1.83 |  | COc1ccc(Cc2ccccc2O[C@@H]2O[C@H](CO)[C@@H](OC)[C@H](O)[C@H]2O)cc1 | 102.46 | 11.01 | 58.68 | 172.94 | 0.78 | 73 |  |  |
